# Test results taken from patent US20240279220A1, “INDOLE COMPOUNDS AND METHODS OF USE” (Genzyme Corporation, priority 2021, published 2024).
# Tested on: NBD1/3D
# Test: Aggregation analysis using differential static light scattering (DSLS), NBD1 thermal stability
# Format: binding, Human
# Settings: ΔTagg versus DMSO control; compound at 100 μM
# In short: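 Purified NBD1 at 0.2 mg/ml in S200 buffer (pH 7.6, 2 mM ATP, 5 mM MgCl2, 1% glycerol) was heated with compound at 1 °C/min to 70 °C. Tagg taken from the light-scattering curve inflection point; ΔTagg = compound Tagg minus mean DMSO control Tagg.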
row,SMILES,DSLS NBD1/3D Human Stability delta-T (° C.) @ 100 (μM)
1,"Cc1c(Oc2ccc(F)c(-c3ccn(Cc4cccc(CCC(=O)O)c4)n3)c2)c(F)cc2[nH]ccc12 [Example 14, 3-(3-((3-(2-fluoro-5-((6-fluoro-4-methyl-1H-indol-5-yl)oxy)phenyl)-1H-pyrazol-1-yl)methyl)phenyl)propanoic acid]",B (B: 5-10° C.)
2,"Cc1c(Oc2ccc(F)c(-c3ccn(Cc4cccc(CCC(N)=O)c4)n3)c2)c(F)cc2[nH]ccc12 [Example 17, 3-(3-((3-(2-Fluoro-5-((6-fluoro-4-methyl-1H-indol-5-yl)oxy)phenyl)-1H-pyrazol-1-yl)methyl)phenyl)propanamide]",C (C: ≤5° C.)
3,"O=C(O)Cc1cccc(Cn2ccc(-c3cccc(Oc4ccc5[nH]ccc5c4CO)c3)n2)c1 [Example 11, 2-(3-((3-(3-((4-(Hydroxymethyl)-1H-indol-5-yl)oxy)phenyl)-1H-pyrazol-1-yl)methyl)phenyl)acetic acid]",B (B: 5-10° C.)
4,"O=C(O)/C=C/c1cccc(Cn2ccc(-c3cccc(Oc4ccc5[nH]ccc5c4CO)c3)n2)c1 [Example 9, (E)-3-(3-((3-(3-((4-(Hydroxymethyl)-1H-indol-5-yl)oxy)phenyl)-1H-pyrazol-1-yl)methyl)phenyl)acrylic acid]",B (B: 5-10° C.)
5,"c1cc(CCCCc2nnn[nH]2)cc(Cc2nnc(-c3cccc(Oc4ccc5[nH]ccc5c4)c3)[nH]2)c1 [Example 260, 5-(3-(5-(3-(4-(1H-Tetrazol-5-yl)butyl)benzyl)-4H-1,2,4-triazol-3-yl)phenoxy)-1H-indole]",C (C: ≤5° C.)
6,"CO[C@]1(C)C[C@@](c2cccc(CCC(=O)O)c2)(c2c[nH]c(-c3cc(Oc4c(F)cc5[nH]ccc5c4S(C)(=O)=O)ccc3F)n2)C1 [Example 71, 3-(3-((1r,3r)-1-(2-(2-fluoro-5-((6-fluoro-4-(methylsulfonyl)-1H-indol-5-yl)oxy)phenyl)-1H-imidazol-4-yl)-3-methoxy-3-methylcyclobutyl)phenyl)propanoic acid]",A (A: T ≥ 10° C.)
7,"Cc1c(Oc2ccc(F)c(-c3ncc(C(OCCO)c4cccc(CCC(=O)O)c4)[nH]3)c2)c(F)cc2[nH]ccc12 (centres unmarked) [Example 235, 3-(3-((2-(2-fluoro-5-((6-fluoro-4-methyl-1H-indol-5-yl)oxy)phenyl)-1H-imidazol-5-yl)(2-hydroxyethoxy)methyl)phenyl) propanoic acid]",B (B: 5-10° C.)
8,"CC(C)(c1cnc(-c2cc(Oc3ccc4[nH]ccc4c3F)ccc2F)[nH]1)c1cccc(CCC(=O)O)c1F [Example 162, 3-(2-fluoro-3-(2-(2-(2-fluoro-5-((4-fluoro-1H-indol-5-yl)oxy)phenyl)-1H-imidazol-5-yl)propan-2-yl)phenyl)propanoic acid]",B (B: 5-10° C.)
9,"O=C(O)CCCCCCc1ccc(Cc2nnc(-c3cccc(Oc4ccc5[nH]ccc5c4)c3)[nH]2)cc1 [Example 254, 7-(4-((5-(3-((1H-Indol-5-yl)oxy)phenyl)-4H-1,2,4-triazol-3-yl)methyl)phenyl)heptanoic acid]",C (C: ≤5° C.)
10,"CC(C)(c1cnc(-c2cc(Oc3c(F)cc4[nH]ccc4c3CC(F)(F)F)ccc2F)[nH]1)c1cccc(CCC(=O)O)c1F [Example 163, 3-(2-fluoro-3-(2-(2-(2-fluoro-5-((6-fluoro-4-(2,2,2-trifluoroethyl)-1H-indol-5-yl)oxy)phenyl)-1H-imidazol-5-yl)propan-2-yl)phenyl)propanoic acid]",B (B: 5-10° C.)
11,"CC(c1ccn(-c2cccc(Oc3c(F)cc4[nH]ccc4c3S(C)(=O)=O)c2)n1)c1cccc(CCC(=O)O)c1F (single isomer, unassigned) [Example 23A, 3-(2-fluoro-3-(1-(1-(3-((6-fluoro-4-(methylsulfonyl)-1H-indol-5-yl)oxy)phenyl)-1H-pyrazol-3-yl)ethyl)phenyl)propanoic acid]",C (C: ≤5° C.)
12,"Cc1c(Oc2ccc(F)c(-c3ncc(C4(c5cc(F)cc(CCC(=O)O)c5)CC4)[nH]3)c2)c(F)cc2[nH]ccc12 [Example 156, 3-(3-fluoro-5-(1-(2-(2-fluoro-5-((6-fluoro-4-methyl-1H-indol-5-yl)oxy)phenyl)-1H-imidazol-5-yl)cyclopropyl)phenyl)propanoic acid]",B (B: 5-10° C.)
13,"Cc1c(Oc2cccc(-c3ccn(Cc4cccc(CC(=O)O)c4)n3)c2)ccc2[nH]ccc12 [Example 5, 2-(3-((3-(3-((4-methyl-1H-indol-5-yl)oxy)phenyl)-1H-pyrazol-1-yl)methyl)phenyl)acetic acid]",B (B: 5-10° C.)
14,"CC(C#N)(c1cccc(CCC(=O)O)c1)c1c[nH]c(-c2cc(Oc3c(F)cc4[nH]ccc4c3S(C)(=O)=O)ccc2F)n1 (centres unmarked) [Example 48, 3-(3-(1-Cyano-1-(2-(2-fluoro-5-((6-fluoro-4-(methylsulfonyl)-1H-indol-5-yl)oxy)phenyl)-1H-imidazol-4-yl)ethyl)phenyl)propanoic acid]",A (A: T ≥ 10° C.)
15,"CC(C)S(=O)(=O)c1c(Oc2ccc(F)c(-c3nc(C(C)(O)c4cccc(CCC(=O)O)c4)c[nH]3)c2)c(F)cc2[nH]ccc12 (centres unmarked) [Example 29, 3-(3-(1-(2-(2-fluoro-5-((6-fluoro-4-(isopropylsulfonyl)-1H-indol-5-yl)oxy)phenyl)-1H-imidazol-4-yl)-1-hydroxyethyl)phenyl)propanoic acid]",B (B: 5-10° C.)
16,"CC(C)(c1cnc(-c2cc(Oc3c(F)cc4[nH]ccc4c3F)ccc2F)[nH]1)c1cccc(CCC(=O)O)c1F [Example 160, 3-(3-(2-(2-(5-((4,6-difluoro-1H-indol-5-yl)oxy)-2-fluorophenyl)-1H-imidazol-5-yl)propan-2-yl)-2-fluorophenyl)propanoic acid]",B (B: 5-10° C.)
17,"CS(=O)(=O)c1c(Oc2ccc(F)c(-c3ncc(Cc4cccc(CCC(N)=O)c4)[nH]3)c2)c(F)cc2[nH]ccc12 [Example 24, 3-(3-((2-(2-Fluoro-5-((6-fluoro-4-(methylsulfonyl)-1H-indol-5-yl)oxy)phenyl)-1H-imidazol-5-yl)methyl)phenyl)propanamide]",B (B: 5-10° C.)
18,"O=C(O)CCc1cccc(C2(c3csc(-c4cc(Oc5c(F)cc6[nH]ccc6c5F)ccc4F)n3)CC(F)(F)C2)c1 [Example 94, 3-(3-(1-(2-(5-((4,6-difluoro-1H-indol-5-yl)oxy)-2-fluorophenyl)thiazol-4-yl)-3,3-difluorocyclobutyl)phenyl)propanoic acid]",B (B: 5-10° C.)
19,"CC(O)(c1cccc(CCC(=O)O)c1)c1csc(-c2cc(Oc3c(F)cc4[nH]ccc4c3S(C)(=O)=O)ccc2F)n1 (centres unmarked) [Example 88, 3-(3-(1-(2-(2-Fluoro-5-((6-fluoro-4-(methylsulfonyl)-1H-indol-5-yl)oxy)phenyl)thiazol-4-yl)-1-hydroxyethyl)phenyl)propanoic acid]",B (B: 5-10° C.)
20,"CC(c1coc(-c2cc(Oc3c(F)cc4[nH]ccc4c3S(C)(=O)=O)ccc2F)n1)c1cccc(CCC(=O)O)c1F (single isomer, unassigned) [Example 43B, 3-(2-fluoro-3-(1-(2-(2-fluoro-5-((6-fluoro-4-(methylsulfonyl)-1H-indol-5-yl)oxy)phenyl)oxazol-4-yl)ethyl)phenyl)propanoic acid]",C (C: ≤5° C.)
